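Where inhibition never reached the appropriate level, the endpoint shown equals the highest concentration tested. Otherwise, values were interpolated linearly from a five-concentration, 48-hour dose response in 96-well plates. Abbreviation: GI50, concentration required for 50% inhibition of growth.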 Active and inactive are the calls of the source. Rule as the data show it: active = GI50 up to about 1.1 µM and inactive = higher.
Tests used:
Test in all cases: NCI tumour cell line growth inhibition, 48 h
786-0 = test system: 786-0
A498 = test system: A498
A549 = test system: A549
ACHN = test system: ACHN
CAKI-1 = test system: CAKI-1
CCRF-CEM = test system: CCRF-CEM
COLO 205 = test system: COLO 205
DLD-1 = test system: DLD-1
DMS-114 = test system: DMS-114
DMS-273 = test system: DMS-273
EKVX = test system: EKVX
HCC 2998 = test system: HCC 2998
HCT-116 = test system: HCT-116
HCT-15 = test system: HCT-15
HL-60 = test system: HL-60
HOP-18 = test system: HOP-18
HOP-62 = test system: HOP-62
HOP-92 = test system: HOP-92
HT-29 = test system: HT-29
IGROV-1 = test system: IGROV-1
K562 = test system: K562
KM-20L2 = test system: KM-20L2
KM12 = test system: KM12
LOX IMVI = test system: LOX IMVI
LXFL 529 = test system: LXFL 529
M14 = test system: M14
M19-MEL = test system: M19-MEL
MOLT-4 = test system: MOLT-4
Malme-3M = test system: Malme-3M
NCI-H226 = test system: NCI-H226
NCI-H23 = test system: NCI-H23
NCI-H460 = test system: NCI-H460
OVCAR-3 = test system: OVCAR-3
OVCAR-4 = test system: OVCAR-4
OVCAR-5 = test system: OVCAR-5
OVCAR-8 = test system: OVCAR-8
RPMI-8226 = test system: RPMI-8226
RXF 393 = test system: RXF 393
RXF 631 = test system: RXF 631
SF-268 = test system: SF-268
SF-295 = test system: SF-295
SF-539 = test system: SF-539
SK-MEL-28 = test system: SK-MEL-28
SK-MEL-2 = test system: SK-MEL-2
SK-MEL-5 = test system: SK-MEL-5
SK-OV-3 = test system: SK-OV-3
SN12C = test system: SN12C
SNB-75 = test system: SNB-75
SNB-78 = test system: SNB-78
SR = test system: SR
SW-620 = test system: SW-620
TK-10 = test system: TK-10
U-251 = test system: U-251
UACC-257 = test system: UACC-257
UACC-62 = test system: UACC-62
UO-31 = test system: UO-31
XF498 = test system: XF498
NCI-H522 = test system: NCI-H522
SNB-19 = test system: SNB-19

SMILES: CN1C/C(=C\c2ccc(C(=O)O)cc2)C(=O)/C(=C/c2ccc(C(=O)O)cc2)C1
- GI50 (786-0): > 100 µM (inactive)
- GI50 (A498): > 100 µM (inactive)
- GI50 (A549): > 100 µM (inactive)
- GI50 (ACHN): > 100 µM (inactive)
- GI50 (CAKI-1): > 100 µM (inactive)
- GI50 (CCRF-CEM): > 100 µM (inactive)
- GI50 (COLO 205): > 100 µM (inactive)
- GI50 (DLD-1): > 100 µM (inactive)
- GI50 (DMS-114): > 100 µM (inactive)
- GI50 (DMS-273): > 100 µM (inactive)
- GI50 (EKVX): > 100 µM (inactive)
- GI50 (HCC 2998): > 100 µM (inactive)
- GI50 (HCT-116): > 100 µM (inactive)
- GI50 (HCT-15): > 100 µM
- GI50 (HL-60): > 100 µM (inactive)
- GI50 (HOP-18): > 100 µM (inactive)
- GI50 (HOP-62): > 100 µM (inactive)
- GI50 (HOP-92): > 100 µM (inactive)
- GI50 (HT-29): > 100 µM (inactive)
- GI50 (IGROV-1): > 100 µM (inactive)
- GI50 (K562): > 100 µM (inactive)
- GI50 (KM-20L2): > 100 µM (inactive)
- GI50 (KM12): > 100 µM (inactive)
- GI50 (LOX IMVI): > 100 µM (inactive)
- GI50 (LXFL 529): > 100 µM (inactive)
- GI50 (M14): > 100 µM (inactive)
- GI50 (M19-MEL): > 100 µM (inactive)
- GI50 (MOLT-4): > 100 µM (inactive)
- GI50 (Malme-3M): > 100 µM (inactive)
- GI50 (NCI-H226): > 100 µM (inactive)
- GI50 (NCI-H23): > 100 µM (inactive)
- GI50 (NCI-H460): > 100 µM (inactive)
- GI50 (OVCAR-3): > 100 µM (inactive)
- GI50 (OVCAR-4): > 100 µM (inactive)
- GI50 (OVCAR-5): > 100 µM (inactive)
- GI50 (OVCAR-8): > 100 µM (inactive)
- GI50 (RPMI-8226): > 100 µM (inactive)
- GI50 (RXF 393): > 100 µM (inactive)
- GI50 (RXF 631): > 100 µM (inactive)
- GI50 (SF-268): > 100 µM (inactive)
- GI50 (SF-295): > 100 µM (inactive)
- GI50 (SF-539): > 100 µM (inactive)
- GI50 (SK-MEL-28): > 100 µM (inactive)
- GI50 (SK-MEL-2): > 100 µM (inactive)
- GI50 (SK-MEL-5): > 100 µM (inactive)
- GI50 (SK-OV-3): > 100 µM (inactive)
- GI50 (SN12C): > 100 µM (inactive)
- GI50 (SNB-75): > 100 µM (inactive)
- GI50 (SNB-78): > 100 µM (inactive)
- GI50 (SR): > 100 µM (inactive)
- GI50 (SW-620): > 100 µM (inactive)
- GI50 (TK-10): > 100 µM (inactive)
- GI50 (U-251): > 100 µM (inactive)
- GI50 (UACC-257): > 100 µM (inactive)
- GI50 (UACC-62): > 100 µM (inactive)
- GI50 (UO-31): > 100 µM (inactive)
- GI50 (XF498): > 100 µM (inactive)

SMILES: CN(C)CC1(Cc2ccccc2)CC/C(=C\c2ccccc2)C1=O (centres undefined)
- GI50 (786-0): 35.1 µM (inactive)
- GI50 (A498): 33.1 µM (inactive)
- GI50 (A549): 96.4 µM (inactive)
- GI50 (ACHN): 50.7 µM (inactive)
- GI50 (CAKI-1): 49.1 µM (inactive)
- GI50 (CCRF-CEM): 27 µM (inactive)
- GI50 (COLO 205): 32.9 µM (inactive)
- GI50 (DLD-1): 27.6 µM (inactive)
- GI50 (DMS-114): 31.3 µM (inactive)
- GI50 (DMS-273): 36.5 µM (inactive)
- GI50 (HCC 2998): 19.9 µM (inactive)
- GI50 (HCT-116): 29.1 µM (inactive)
- GI50 (HCT-15): 19.8 µM
- GI50 (HL-60): 20.4 µM (inactive)
- GI50 (HOP-18): > 100 µM (inactive)
- GI50 (HOP-62): > 100 µM (inactive)
- GI50 (HOP-92): 51.4 µM (inactive)
- GI50 (HT-29): 20.7 µM (inactive)
- GI50 (IGROV-1): 47.8 µM (inactive)
- GI50 (K562): 29.4 µM (inactive)
- GI50 (KM-20L2): 17.2 µM (inactive)
- GI50 (KM12): 40.3 µM (inactive)
- GI50 (LOX IMVI): 29.6 µM (inactive)
- GI50 (LXFL 529): 37.2 µM (inactive)
- GI50 (M14): 49.3 µM (inactive)
- GI50 (M19-MEL): 26.8 µM (inactive)
- GI50 (MOLT-4): 24 µM (inactive)
- GI50 (Malme-3M): 44 µM (inactive)
- GI50 (NCI-H226): 92.9 µM (inactive)
- GI50 (NCI-H23): 44.8 µM (inactive)
- GI50 (NCI-H460): 28.2 µM (inactive)
- GI50 (NCI-H522): 15.2 µM (inactive)
- GI50 (OVCAR-3): 31.4 µM (inactive)
- GI50 (OVCAR-4): 51.3 µM (inactive)
- GI50 (OVCAR-5): 40.6 µM (inactive)
- GI50 (OVCAR-8): 34.5 µM (inactive)
- GI50 (RPMI-8226): 23.9 µM (inactive)
- GI50 (RXF 393): 35.6 µM (inactive)
- GI50 (RXF 631): 29.3 µM (inactive)
- GI50 (SF-268): 61 µM (inactive)
- GI50 (SF-295): 62.2 µM (inactive)
- GI50 (SF-539): 24.9 µM (inactive)
- GI50 (SK-MEL-28): > 100 µM (inactive)
- GI50 (SK-MEL-2): 50.9 µM (inactive)
- GI50 (SK-MEL-5): 22.5 µM (inactive)
- GI50 (SN12C): 69.2 µM (inactive)
- GI50 (SNB-19): 22.2 µM (inactive)
- GI50 (SNB-75): 57.3 µM (inactive)
- GI50 (SNB-78): 52.2 µM (inactive)
- GI50 (SR): 34 µM (inactive)
- GI50 (SW-620): 20.8 µM (inactive)
- GI50 (TK-10): > 100 µM (inactive)
- GI50 (U-251): 32.8 µM (inactive)
- GI50 (UACC-257): 32.4 µM (inactive)
- GI50 (UACC-62): 15.1 µM (inactive)
- GI50 (UO-31): 47.8 µM (inactive)
- GI50 (XF498): 80.9 µM (inactive)

SMILES: COc1ccc(NCC#N)cc1
- GI50 (786-0): 25.1 µM (inactive)
- GI50 (A498): > 100 µM (inactive)
- GI50 (A549): > 100 µM (inactive)
- GI50 (ACHN): > 100 µM (inactive)
- GI50 (CCRF-CEM): > 100 µM (inactive)
- GI50 (COLO 205): > 100 µM (inactive)
- GI50 (DLD-1): > 100 µM (inactive)
- GI50 (DMS-114): > 100 µM (inactive)
- GI50 (DMS-273): > 100 µM (inactive)
- GI50 (EKVX): > 100 µM (inactive)
- GI50 (HCC 2998): > 100 µM (inactive)
- GI50 (HCT-116): > 100 µM (inactive)
- GI50 (HCT-15): > 100 µM
- GI50 (HL-60): 52.8 µM (inactive)
- GI50 (HOP-18): > 100 µM (inactive)
- GI50 (HOP-92): > 100 µM (inactive)
- GI50 (HT-29): > 100 µM (inactive)
- GI50 (IGROV-1): > 100 µM (inactive)
- GI50 (K562): > 100 µM (inactive)
- GI50 (KM-20L2): > 100 µM (inactive)
- GI50 (KM12): > 100 µM (inactive)
- GI50 (LOX IMVI): > 100 µM (inactive)
- GI50 (LXFL 529): > 100 µM (inactive)
- GI50 (M14): > 100 µM (inactive)
- GI50 (M19-MEL): > 100 µM (inactive)
- GI50 (MOLT-4): > 100 µM (inactive)
- GI50 (Malme-3M): > 100 µM (inactive)
- GI50 (NCI-H23): > 100 µM (inactive)
- GI50 (NCI-H460): > 100 µM (inactive)
- GI50 (NCI-H522): > 100 µM (inactive)
- GI50 (OVCAR-3): > 100 µM (inactive)
- GI50 (OVCAR-5): > 100 µM (inactive)
- GI50 (OVCAR-8): > 100 µM (inactive)
- GI50 (RPMI-8226): > 100 µM (inactive)
- GI50 (RXF 393): > 100 µM (inactive)
- GI50 (RXF 631): > 100 µM (inactive)
- GI50 (SF-268): > 100 µM (inactive)
- GI50 (SF-295): > 100 µM (inactive)
- GI50 (SF-539): > 100 µM (inactive)
- GI50 (SK-MEL-28): > 100 µM (inactive)
- GI50 (SK-MEL-2): > 100 µM (inactive)
- GI50 (SK-MEL-5): > 100 µM (inactive)
- GI50 (SK-OV-3): > 100 µM (inactive)
- GI50 (SN12C): > 100 µM (inactive)
- GI50 (SNB-19): > 100 µM (inactive)
- GI50 (SNB-75): 76.2 µM (inactive)
- GI50 (SNB-78): > 100 µM (inactive)
- GI50 (SR): > 100 µM (inactive)
- GI50 (SW-620): > 100 µM (inactive)
- GI50 (TK-10): > 100 µM (inactive)
- GI50 (U-251): > 100 µM (inactive)
- GI50 (UACC-257): > 100 µM (inactive)
- GI50 (UACC-62): 83.4 µM (inactive)
- GI50 (UO-31): > 100 µM (inactive)
- GI50 (XF498): > 100 µM (inactive)

Reference: ChEMBL document CHEMBL1201862, “PubChem BioAssay data set” (2004)
